# Literature values, collected in US20060030547A1, “Antineoplastic combinations” (Wyeth, priority 2001, published 2006).
# Columns and labels:
# [1] = tested on: human glioblastoma cell line; conditions: in vitro, background statement
# orthotopic glioma = conditions: nude mice, background statement
# [2] = tested on: histologically diverse tumor cells; conditions: in vitro, background statement
smiles,measurement,setting,value
"CO[C@H]1C[C@@H]2CC[C@@H](C)[C@@](O)(O2)C(=O)C(=O)N2CCCC[C@H]2C(=O)O[C@H]([C@H](C)C[C@@H]2CC[C@@H](OC(=O)C(C)(CO)CO)[C@H](OC)C2)CC(=O)[C@H](C)/C=C(\C)[C@@H](O)[C@@H](OC)C(=O)[C@H](C)C[C@H](C)/C=C/C=C/C=C/1C [CCI-779, Rapamycin 42-ester with 3-hydroxy-2-(hydroxymethyl)-2-methylpropionic acid]",suppression of growth factor (platelet-derived)-induced stimulation,[1],markedly suppressed
same,activity in orthotopic glioma model,orthotopic glioma,active
same,cell cycle effect,[2],arrested cells in the G1 phase of the cell cycle
